From patent publication US11001808B2, “Immortalization of epithelial cells and methods of use” (Georgetown University, priority 2010, dated 2021)
Entries after “also recorded” stand apart in the source; their conditions may differ.

Columns and labels:
human prostate cells = test: Proliferation in serum-containing F medium with Rho-Rock-Myosin pathway inhibitors, Crystal Violet staining (FIG. 23); assay type: cell-based; conditions: about 5000 cells in 6-well plates, 8 days, Y-27632 5 μM, HA-1100 20 μM, GSK429286 0.1 μM, Fasudil 30 μM, C3 transferase 2 μg/ml, Blebbistatin 5 μM
Protocol: FIG. 23 depicts that inhibition of the Rho-Rock-Myosin pathway prevents cells from terminally differentiating, allowing the cells to proliferate in serum-containing medium. Normally, serum-containing medium induces terminal differentiation of primary epithelial cells and, in turn, causes senescence in culture. Approximately 5000 human prostate cells were plated in 6-well plates in F medium with addition of Rock inhibitors Y-27632 (5 μM), HA-1100 (20 μM), GSK429286 (0.1 μM), Fasudil (30 μM), a Rho inhibitor (C3 transferase, 2 μg/ml), or a Mysin inihibitor (-Blebbistatin, 5 μM). Eight days later, cells were fixed and stained with 0.05% Crystal Violet.
As used herein, inhibiting ROCK can mean to reduce the activity, function or expression of at least one of ROCK1 or ROCK2. […] In general, ROCK phosphorylates LIM kinase and myosin light chain (MLC) phosphatase after being activated through binding of GTP-bound Rho. One embodiment of the present invention thus involves blocking the upstream pathway of ROCK1 and/or ROCK2, for example GTP-bound Rho, such that ROCK1 and/or ROCK2 is not activated or its activity is reduced over untreated cells. Other upstream effectors include but are not limited to, integrins, growth factor receptors, including but not limited to, TGF-beta and EGFR, cadherins, G protein coupled receptors and the like. Another embodiment of the present invention thus involves blocking the activity, function or expression of downstream effector molecules of activated ROCK1 and/or ROCK2 such that ROCK1 and/or ROCK2 can not propagate any signal or can only propagate a reduced signal over untreated cells. Downstream effectors include but are not limited to, Myosin phosphatase-targeting protein (MYPT), vimentin, LIMK, Myosin light chain kinase, NHE1, cofilin, Myosin II and the like. […] Upstream or downstream inhibition of ROCK, in place of direct ROCK inhibition and in conjunction with the other culture conditions described and required herein, may or may not generate conditionally immortalized NKE cells.

[1] = test system: HPV-11-containing tumor cells from the patient; test: Cell viability curves (CellTiter-Glo Luminescent Cell Viability Assay), patient's cultured tumor cells; assay type: cell-based, human; conditions: for sensitivity of tumor cells compared with normal lung cells: tumor versus normal lung cells of the same patient, 24 hours
Protocol: (§1) Normal and tumor cells were treated with Cidofovir, Vorinostat or DHA at indicated concentration for 24 hours. Cell viabilities were measured using CellTiter-Glo® Luminescent Cell Viability Assay (Promega)
(§2) There is no data in the literature, however, analyzing the effect of these inhibitors on cells containing low-risk HPVs, because there are no cell lines established that contain HPV-6 or HPV-11. […] More importantly, this cell line was used to evaluate the sensitivity to the above inhibitors and to compare it to the sensitivity of normal lung cells isolated from the same patient (FIG. 17).
(§3) Cidovovir is the most common drug used for treating RRP.

[2] = test system: recurrent papillomatosis of the larynx; conditions: patient history: interferon 1996-2010, Methotrexate 2001-03, intralesional Cidofovir 2007-2010, intralesional Avastin 2010; cited from earlier work
[3] = test system: cervical cancer cells that express the high-risk HPVs; conditions: previous studies; cited from earlier work
airway epithelial cells = conditions: Moore et al., 2004; cited from earlier work
normal lung cells = test: Cell viability curves (CellTiter-Glo Luminescent Cell Viability Assay), normal cells of the same patient; conditions: treated 24 hours, cell type of the LD50 not stated, taken as normal lung cells from context
Protocol: as §1, §2, §3

[4] = test system: recurrent respiratory papillomatosis; test: Vorinostat therapy of the patient, follow-up by CT scan; assay type: in vivo, human; conditions: one patient, 400 mg/daily, 4 week cycle (3 weeks on, 1 week off)
Excerpt: A patient with recurrent papillomatosis of the larynx for 16 years was chosen for this study. The disease progressively involved not only the larynx, but had spread to the upper airway (trachea and bronchi) and recently into the lung parenchyma. The patient had had more than 350 surgeries. Besides surgeries, multiple treatments had failed, including interferon treatment (1996-2010), Methotrexate (2001-03), intralesional Cidofovir (2007-2010), and intralesional Avastin (2010). […] By October 2010, the size each lung lesion examined was increasing. During the last surgical intervention, a wedge resection of the right upper lobe was performed to remove metastatic tumor. […] Koilocytotic changes in such tumors are an indication that the tumor is producing infectious HPV. However, at the time of intervention, the type of HPV involved in this tumor had not been identified. Since the tumor had not responded to several different treatment modalities, it was also unclear how the patient would be treated following surgery.
Based on the in vitro sensitivity data, the patient was placed on Vorinostat therapy in January of 2011. The therapy consisted 4 week cycle (3 weeks on, 1 week off) of Vorinostat at 400 mg/daily. […] Thus, the use of the cell culture methods of the present invention were critical in determining a response profile of the abnormal cells, which enabled the identification of at least two chemotherapeutic agents that might be useful for treating this patient's tumors. Using the cell culture methods of the present invention, the response profile, including the genetic analysis and the therapeutic index, was generated within one week of biopsy.

[5] = test system: human primary prostate cells; test: In vitro growth curves under various growth conditions (FIG. 2A); assay type: cell-based
Protocol: (§4) FIGS. 2A-2B depict in vitro growth curves of human primary prostate cells and human primary mammary cells under various growth conditions. (A) PrEGM is a synthetic commercial prostate epithelial cell growth medium; (B) MEGM is a synthetic commercial mammary epithelial cell medium; Feeders are J2 mouse fibroblasts that have been irradiated or treated with mitomycin C; ROCK inhibitor is Y27632 at a concentration of 10 μM that was applied to the cells at initial plating and thereafter. The y-axis is population doublings and the x-axis is number of days. Media was changed every 3 days for all groups.
(§5) Primary HMECs and HPECs were grown under the four different conditions noted in FIG. 2. […] Feeders were the J2 mouse fibroblasts that have been gamma irradiated. The ROCK inhibitor was Y27632 at a concentration of 10 μM that was applied to the cells at initial plating and thereafter. The y-axis is population doublings and the x-axis is number of days. Media was changed every 2-3 days for all groups.
(§6) Cells grown in the presence of the feeder cells in F medium without ROCK inhibitor had about the same growth rate, i.e., the slope of the lines was about the same, but the cells grown in the presence of feeder cells eventually stopped growing.

[6] = test system: human primary mammary cells; test: In vitro growth curves under various growth conditions (FIG. 2B); assay type: cell-based
Protocol: as §4, §5, §6

[7] = F medium, irradiated J2 feeders, 10 μM from initial plating

With `Cc1ccc2c(c1)C(=O)C1(O)CCN(c3ccccc3)C1=N2` (stereo not shown) [Blebbistatin] the “suppression of serum-induced differentiation / proliferation in serum-containing medium” value (human prostate cells) was “able to suppress cell differentiation by serum” and the “suppression of serum-induced differentiation / proliferation in serum-containing medium” value (human prostate cells; listed as blebbistatin) was “allow the cells to bypass differentiation and allow proliferation in vitro”.

In the case of `Nc1ccn(C[C@@H](CO)OCP(=O)(O)O)c(=O)n1` [Cidofovir], the “effect on cell viability in vitro” value ([1]; very high concentrations (50-200 μM), 24 hours (FIG. 17A)) is listed as “completely ineffective” and the “outcome of earlier treatment” value [2] is listed as “failed”.

For `C[C@H]1[C@@H](O)O[C@@H]2O[C@@]3(C)CC[C@H]4[C@H](C)CC[C@@H]1[C@@]24OO3` [DHA], the “sensitivity of tumor cells compared with normal lung cells” value [1] is listed as “approximately 100 fold” and the “killing of cervical cancer cells” value [3] is listed as “able to efficiently kill”.

In the case of `O=S(=O)(c1cccc2cnccc12)N1CCCNCC1` [Fasudil], the “suppression of serum-induced differentiation / proliferation in serum-containing medium” value (human prostate cells) is given as “able to suppress cell differentiation by serum” and the “effect of inhibition on airway epithelial cells” value (airway epithelial cells) is given as “induces membrane ruffling, loss of actin stress fibers and apoptosis”.

For `CC1=C(C(=O)Nc2cc3cn[nH]c3cc2F)C(c2ccc(C(F)(F)F)cc2)CC(=O)N1` (stereo not shown) [GSK429286], the “suppression of serum-induced differentiation / proliferation in serum-containing medium” value (human prostate cells) was “able to suppress cell differentiation by serum”.

In the case of `O=S(=O)(c1cccc2c(O)nccc12)N1CCCNCC1` [HA-1100], the “suppression of serum-induced differentiation / proliferation in serum-containing medium” value (human prostate cells) is reported as “able to suppress cell differentiation by serum”.

For `CN(Cc1cnc2nc(N)nc(N)c2n1)c1ccc(C(=O)N[C@@H](CCC(=O)O)C(=O)O)cc1` [Methotrexate], the “outcome of earlier treatment” value [2] is listed as “failed”.

For `O=C(CCCCCCC(=O)Nc1ccccc1)NO` [SAHA], the “sensitivity of tumor cells compared with normal lung cells” value [1] was “approximately 100 fold”, the LD50 (normal lung cells) was “approximately 200 μM” and the “lesions in more recent CT scan” value [4] was “all lesions had stabilized”. The “lesions in subsequent CT scan” value [4] was “no new lesions were identified, smaller lesions were shrinking, and some larger lesions were also decreasing in size” and the side effects [4] was “no major side effects had been observed”.

For `C[C@@H](N)[C@H]1CC[C@H](C(=O)Nc2ccncc2)CC1` [Y-27632], the “suppression of serum-induced differentiation / proliferation in serum-containing medium” value (human prostate cells) was “able to suppress cell differentiation by serum”, the “growth (population doublings) with feeder cells in F medium plus ROCK inhibitor” value [5, 7] was “have continued to grow” and the “growth (population doublings) on addition of ROCK inhibitor to synthetic medium” value ([5]; PrEGM synthetic serum-free medium, 10 μM, no feeders) was “did not affect growth”. The “growth (population doublings) with feeder cells in F medium plus ROCK inhibitor” value [6, 7] was “have continued to grow”, the “growth (population doublings) on addition of ROCK inhibitor to synthetic medium” value ([6]; MEGM synthetic serum-free medium, 10 μM, no feeders) was “did not affect growth” and the “effect of inhibition on airway epithelial cells” value (airway epithelial cells) was “induces membrane ruffling, loss of actin stress fibers and apoptosis”.

For `C[C@H]1[C@H](OC(=O)CCC(=O)O)O[C@@H]2O[C@@]3(C)CC[C@H]4[C@H](C)CC[C@@H]1[C@@]24OO3` [artesunate], the “killing of cervical cancer cells” value [3] is given as “able to efficiently kill”.

In the case of “Avastin: intralesional Avastin, earlier treatment of the patient”, the “outcome of earlier treatment” value [2] is listed as “failed”.

In the case of C3 transferase, the “suppression of serum-induced differentiation / proliferation in serum-containing medium” value (human prostate cells) is reported as “able to suppress cell differentiation by serum; also recorded: allow the cells to bypass differentiation and allow proliferation in vitro”.
